From article PMC6792352, “Limited Chemical Structural Diversity Found to Modulate Thyroid Hormone Receptor in the Tox21 Chemical Library” (Environmental Health Perspectives, 2019)
Structures can show the parent of a compound that is named as a salt. Where two headings read alike, the source gives them in different places. Starred links: 1 amine or outer side, 2 acyl side, 3 side chain; linkers in the order of their positions; H or OH if unused. Positions of bridges follow the written chain, without caps; N, C: chain ends. Non-standard residues stand in square brackets, D forms with d. Residues, ends and D or L forms follow the SMILES beside them. Chains are numbered I, II in the order given. Actinocin(9to1) = Cc1c2oc3c(C)ccc(C(=O)[*:1])c3nc-2c(C(=O)[*:2])c(N)c1=O; NMeV = CN[C@H](C(=O)O)C(C)C; Sar = CNCC(=O)O

Tested on: GH3-TRE-Luc cell line
Conditions: read-out: AC50 (uM) modified / 1000, viability, 1 nM T3 present, 24 h

CCCCCCCCCCn1cc[n+](C)c1 [1-Decyl-3-methylimidazolium chloride]
CC50 (Tox21_110001=Tox21_202623): 22.3 µM

CCCCCCCCCCn1cc[n+](C)c1 [1-Decyl-3-methylimidazolium hexafluorophosphate]
CC50 (Tox21_110001=Tox21_202624): 11.4 µM

CCCCCCCCCCn1cc[n+](C)c1 [1-Decyl-3-methylimidazolium tetrafluoroborate]
CC50 (Tox21_110001=Tox21_200592): 13.1 µM

CCCCCCCCCCn1cc[n+](C)c1 [1-Decyl-3-methylimidazolium trifluoromethanesulfonate]
CC50 (Tox21_110001=Tox21_200593): 6.68 µM

CCCCCCCCCCCCn1cc[n+](C)c1 [1-Dodecyl-3-methylimidazolium bromide]
CC50 (Tox21_110001=Tox21_202628): 80.1 µM

CCCCCCCCCCCCn1cc[n+](C)c1 [1-Dodecyl-3-methylimidazolium hexafluorophosphate]
CC50 (Tox21_110001=Tox21_200596): 4.11 µM

CCCCCCCCCCCCn1cc[n+](C)c1 [1-Dodecyl-3-methylimidazolium tetrafluoroborate]
CC50 (Tox21_110001=Tox21_202629): 3.46 µM

CCCCCCCCCCCCn1cc[n+](C)c1 [1-Dodecyl-3-methylimidazolium trifluoromethanesulfonate]
CC50 (Tox21_110001=Tox21_202630): 3.74 µM

CC[n+]1ccccc1 [1-Ethylpyridinium bromide]
CC50 (Tox21_110001=Tox21_202695): 32.7 µM

CCCCCCCCCCCCCCCCn1cc[n+](C)c1 [1-Hexadecyl-3-methylimidazolium chloride]
CC50 (Tox21_110001=Tox21_200600): 21.4 µM

CCCCCCCCCCCCCCCCn1cc[n+](C)c1 [1-Hexadecyl-3-methylimidazolium tetrafluoroborate]
CC50 (Tox21_110001=Tox21_202647): 12.9 µM

CCCCCCCC[n+]1ccn(C)c1 [1-Methyl-3-octylimidazolium bromide]
CC50 (Tox21_110001=Tox21_202653): 31.6 µM

CCCCCCCC[n+]1ccn(C)c1 [1-Methyl-3-octylimidazolium tetrafluoroborate]
CC50 (Tox21_110001=Tox21_200695): 44.3 µM

CCCCCCCC[n+]1ccn(C)c1 [1-Methyl-3-octylimidazolium trifluoromethanesulfonate]
CC50 (Tox21_110001=Tox21_200708): 75.9 µM

CCCCCCCCCCCCCCn1cc[n+](C)c1 [1-Methyl-3-tetradecylimidazolium chloride]
CC50 (Tox21_110001=Tox21_202660): 8.43 µM

O=C(CCl)c1ccc(Cl)cc1Cl [2,2',4'-Trichloroacetophenone]
CC50 (Tox21_110001=Tox21_113246): 2.14 µM | CC50 (Tox21_110001=Tox21_113461): 4.54 µM

COc1ccc(N)cc1N [2,4-Diaminoanisole sulfate hydrate]
CC50 (Tox21_110001=Tox21_302700): 48.9 µM

Cc1ncc[nH]1 [2-Methylimidazole]
CC50 (Tox21_110001=Tox21_111136): 0.0572 µM

Nc1ccc(-c2ccc(N)c(N)c2)cc1N [3,3'-Diaminobenzidine]
CC50 (Tox21_110001=Tox21_302170): 93.2 µM

CC1CC(OC(=O)c2ccccc2O)CC(C)(C)C1 (stereo not drawn) [3,3,5-Trimethylcyclohexyl salicylate]
CC50 (Tox21_110001=Tox21_111174): 42.4 µM | CC50 (Tox21_110001=Tox21_303082): 72.7 µM

CCn1c2ccccc2c2cc(N)ccc21 [3-Amino-9-ethylcarbazole]
CC50 (Tox21_110001=Tox21_303548): 93.2 µM

CCCCNC(=O)OCC#CI [3-Iodo-2-propynyl-N-butylcarbamate]
CC50 (Tox21_110001=Tox21_201864): 15.9 µM | CC50 (Tox21_110001=Tox21_301117): 4.22 µM

CC(=O)Nc1ccc(C(=O)CCl)cc1 [4'-(Chloroacetyl)acetanilide]
CC50 (Tox21_110001=Tox21_302954): 16.5 µM

Oc1ccc(OCc2ccccc2)cc1 [4-(Benzyloxyl)phenol]
CC50 (Tox21_110001=Tox21_110396): 4.58 µM | CC50 (Tox21_110001=Tox21_201147): 10.2 µM

CC/C(=C(\c1ccc(O)cc1)c1ccc(OCCN(C)C)cc1)c1ccccc1 [4-Hydroxytamoxifen]
CC50 (Tox21_110001=Tox21_303657): 2.62 µM

O=[N+]([O-])c1ccc(O)cc1 [4-Nitrophenol]
CC50 (Tox21_110001=Tox21_300117): 67.6 µM

CCCCCCCCCc1ccc(O)cc1 [4-Nonylphenol, branched]
CC50 (Tox21_110001=Tox21_111040): 28.7 µM | CC50 (Tox21_110001=Tox21_201528): 23.6 µM | CC50 (Tox21_110001=Tox21_300576): 22.3 µM

Nc1ncn([C@@H]2O[C@H](CO)[C@@H](O)[C@H]2O)c(=O)n1 [5-Azacytidine]
CC50 (Tox21_110001=Tox21_111032): 5.77 µM | CC50 (Tox21_110001=Tox21_302985): 19.3 µM

O=c1[nH]cc(F)c(=O)[nH]1 [5-Fluorouracil]
CC50 (Tox21_110001=Tox21_202335): 16.7 µM | CC50 (Tox21_110001=Tox21_300112): 30.2 µM

Oc1cccc2cccnc12 [8-Hydroxyquinoline sulfate]
CC50 (Tox21_110001=Tox21_303537): 1.43 µM

Oc1cccc2cccnc12 [8-Hydroxyquinoline]
CC50 (Tox21_110001=Tox21_113083): 3 µM | CC50 (Tox21_110001=Tox21_202986): 3.28 µM | CC50 (Tox21_110001=Tox21_400006): 3.8 µM

Oc1cccc2cccnc12 [8-Quinolinol salicylic acid (1:1)]
CC50 (Tox21_110001=Tox21_110005): 10.3 µM

CC/C(=C(\c1ccc(O)cc1)c1ccc(OCCN(C)C)cc1)c1ccccc1 [(Z)-4-Hydroxytamoxifen]
CC50 (Tox21_110001=Tox21_200943): 5.77 µM

Cc1c2oc3c(C)ccc(C(=O)N[C@@H]4C(=O)N[C@H](C(C)C)C(=O)N5CCC[C@H]5C(=O)N(C)CC(=O)N(C)[C@@H](C(C)C)C(=O)O[C@@H]4C)c3nc-2c(C(=O)N[C@@H]2C(=O)N[C@H](C(C)C)C(=O)N3CCC[C@H]3C(=O)N(C)CC(=O)N(C)[C@@H](C(C)C)C(=O)O[C@@H]2C)c(N)c1=O [Actinomycin D] (I: T[dV]P[Sar][NMeV] / II: T[dV]P[Sar][NMeV]; ester I:1-I:C, II:1-II:C; linker I:N-II:N via Actinocin(9to1))
CC50 (Tox21_110001=Tox21_111997): 0.00788 µM | CC50 (Tox21_110001=Tox21_202482): 0.000903 µM

COc1cccc2c1C(=O)c1c(O)c3c(c(O)c1C2=O)C[C@@](O)(C(=O)CO)C[C@@H]3O[C@H]1C[C@H](N)[C@H](O)[C@H](C)O1 [Adriamycin hydrochloride]
CC50 (Tox21_110001=Tox21_112061): 1.54 µM | CC50 (Tox21_110001=Tox21_202483): 0.253 µM

CCCSc1ccc2nc(NC(=O)OC)[nH]c2c1 [Albendazole]
CC50 (Tox21_110001=Tox21_110659): 0.271 µM
